{
  "source": "BindingDB's records for doi:10.1016/j.bmcl.2009.09.002",
  "about": "(Novartis Institutes For Biomedical Research, 2009)",
  "experiment": "Antagonist activity at human CXCR3 expressed in L1.2 cells assessed as inhibition of I-TAC-induced cell migration by flow cytometry",
  "data": [
    {"smiles": "CCN(CC)C(=O)[C@@H]1C=C2c3cccc4[nH]cc(c34)C[C@H]2N(C(=O)Nc2ccccc2)C1", "note": "[(6aR,9R)-N9,N9-diethyl-N7-phenyl-6,6a,8,9-tetrahydroindolo[4,3-fg]quinoline-7,9(4H)-dicarboxamide]", "values": [
      {"measurement": "IC50", "result": 74, "unit": "nM"}
    ]}
  ]
}
